The text below walks through data of patent publication US11149037B2, “Pyrazole MAGL inhibitors” (H. Lundbeck A/S, priority 2017, dated 2021).

The target of test [1] is FAAH (Homo sapiens (Human), UniProt O00519). Kind of test: In vitro competitive activity-based protein profiling, human proteomes (prefrontal cortex or PC3 cell membrane fractions). It is filed as biochemical. As to conditions: 1 μM, human proteome; read-out: FAAH % inh. 1 μM (human). The gist of the method:
(§1)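 Activity of MAGL and FAAH was quantified from fluorescent gel band intensities. Beforehand, inhibitors at several concentrations competed against subsequent probe labelling (FP-Rh, JW912 or HT-01) in species-matched proteomes, each step 30 min at 37° C.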

In test [2] the target is MAGL (Homo sapiens (Human), UniProt Q99685). The description is as above. It is filed as biochemical. As to conditions: 1 μM, human proteome; read-out: MAGL % inh. 1 μM (human). The gist of the method: as §1
The target in test [3] is T1, FAAH (Mus musculus (Mouse), UniProt O08914). Kind of test: In vitro competitive activity-based protein profiling, mouse proteomes (brain membrane fraction or cell lysates). It is filed as biochemical. As to conditions: mouse proteome, read-out: FAAH % inh. 1 μM (mouse). The gist of the method:
as §1

In test [4] the target is T2, MAGL (Mus musculus (Mouse), UniProt O35678). The test is described as above. It is filed as biochemical. To be noted: mouse proteome, read-out: MAGL % inh. 1 μM (mouse). The gist of the method: as §1
Test [5] concerns the target T1, FAAH. Kind of test: Mouse brain proteomes from inhibitor treated mice (oral gavage, sacrificed 4 h after administration). It is filed as in vivo. As to conditions: 5 mg/kg oral gavage. On the procedure:
(§2) Preparation of Mouse Brain Proteomes from Inhibitor Treated Mice.
(§3) Inhibitors were administered to wild-type C57B1/6J by oral gavage in a vehicle of polyethylene glycol. Each animal was sacrificed 4 h following administration and brain proteomes were prepared and analyzed according to previously established methods (See Niphakis, M. J., et al. (2011) ACS Chem. Neurosci. and Long, J. Z., et al. Nat. Chem. Biol. 5:37-44).

For test [6], the target named is T2, MAGL. The description is as above. To be noted: 5 mg/kg oral gavage. It is filed as in vivo. The protocol: as §2, §3

Where only a bound is given, the exact number is not on record here.

T2 sequence (O35678 whole entry): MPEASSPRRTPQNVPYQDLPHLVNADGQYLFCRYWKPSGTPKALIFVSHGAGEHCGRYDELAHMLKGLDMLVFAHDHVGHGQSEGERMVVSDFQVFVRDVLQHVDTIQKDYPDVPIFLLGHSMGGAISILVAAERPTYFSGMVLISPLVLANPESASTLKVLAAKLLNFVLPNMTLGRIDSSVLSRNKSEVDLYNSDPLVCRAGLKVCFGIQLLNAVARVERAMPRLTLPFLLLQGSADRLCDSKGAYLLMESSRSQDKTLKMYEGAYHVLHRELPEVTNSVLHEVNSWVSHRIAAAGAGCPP
Sequence of FAAH (Homo sapiens (Human), UniProt O00519) (O00519 whole entry): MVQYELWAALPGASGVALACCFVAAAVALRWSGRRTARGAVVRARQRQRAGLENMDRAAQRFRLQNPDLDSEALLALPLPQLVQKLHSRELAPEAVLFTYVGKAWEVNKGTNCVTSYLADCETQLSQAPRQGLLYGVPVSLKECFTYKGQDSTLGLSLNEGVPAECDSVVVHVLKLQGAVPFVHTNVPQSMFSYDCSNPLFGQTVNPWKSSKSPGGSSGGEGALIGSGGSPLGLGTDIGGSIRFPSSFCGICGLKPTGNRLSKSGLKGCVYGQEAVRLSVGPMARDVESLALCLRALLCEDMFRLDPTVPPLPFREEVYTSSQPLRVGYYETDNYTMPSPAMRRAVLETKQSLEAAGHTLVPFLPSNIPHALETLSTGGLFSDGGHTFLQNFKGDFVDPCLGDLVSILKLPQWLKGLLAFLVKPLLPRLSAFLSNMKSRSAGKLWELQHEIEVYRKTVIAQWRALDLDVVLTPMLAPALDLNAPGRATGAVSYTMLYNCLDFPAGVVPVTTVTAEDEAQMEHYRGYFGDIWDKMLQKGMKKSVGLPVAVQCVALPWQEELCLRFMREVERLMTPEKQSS
T1 sequence (O08914 whole entry): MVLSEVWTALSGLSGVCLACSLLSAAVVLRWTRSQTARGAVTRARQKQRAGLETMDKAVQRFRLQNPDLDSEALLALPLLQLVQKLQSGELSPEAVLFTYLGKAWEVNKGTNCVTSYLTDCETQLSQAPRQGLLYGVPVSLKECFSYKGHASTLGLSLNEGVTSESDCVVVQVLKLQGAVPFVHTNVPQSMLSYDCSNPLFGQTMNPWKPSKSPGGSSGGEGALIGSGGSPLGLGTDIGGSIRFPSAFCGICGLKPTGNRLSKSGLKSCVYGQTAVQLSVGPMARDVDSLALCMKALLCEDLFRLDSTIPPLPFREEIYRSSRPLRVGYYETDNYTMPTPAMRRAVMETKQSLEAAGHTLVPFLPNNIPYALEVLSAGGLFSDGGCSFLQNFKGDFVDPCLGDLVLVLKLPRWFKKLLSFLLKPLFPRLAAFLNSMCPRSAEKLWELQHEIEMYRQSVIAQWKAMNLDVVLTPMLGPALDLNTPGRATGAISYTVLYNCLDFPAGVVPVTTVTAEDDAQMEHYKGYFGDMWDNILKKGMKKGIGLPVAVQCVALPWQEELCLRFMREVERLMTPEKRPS
Sequence of MAGL (Homo sapiens (Human), UniProt Q99685) (Q99685 whole entry): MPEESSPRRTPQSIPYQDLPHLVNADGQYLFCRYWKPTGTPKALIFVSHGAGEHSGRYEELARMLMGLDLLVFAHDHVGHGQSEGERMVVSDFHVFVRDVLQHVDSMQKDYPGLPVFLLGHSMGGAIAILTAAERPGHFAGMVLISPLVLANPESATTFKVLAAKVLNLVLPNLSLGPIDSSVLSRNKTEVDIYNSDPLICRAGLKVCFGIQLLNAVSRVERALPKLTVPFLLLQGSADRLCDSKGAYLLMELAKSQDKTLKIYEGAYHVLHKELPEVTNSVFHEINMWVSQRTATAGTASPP

For `C[C@@H]1CCCN1c1cc(CN2CCN(C(=O)n3ccc(NS(C)(=O)=O)n3)CC2)ccc1C(F)(F)F` [Example 156, (R)-N-(1-(4-(3-(2-Methylpyrrolidin-1-yl)-4-(trifluoromethyl)benzyl)piperazine-1-carbonyl)-1H-pyrazol-3-yl)methanesulfonamide], the inhibition at 1 µM on FAAH [1] was 0 to 25%; at MAGL [2], more than 75%; at FAAH [3], 0 to 25%; on MAGL [4] it was more than 75%. The “FAAH % inh. 5 mg/kg (mouse)” value at FAAH [5] was “D (% inhibition is greater than or equal to 0% and less than 25%)”. In addition, at MAGL [6], the “MAGL % inh. 5 mg/kg (mouse)” value was “A (% inhibition is greater than or equal to 75%)”.
As for `CS(=O)(=O)Nc1ccn(C(=O)N2CCN(Cc3ccc(Cl)c(N4C[C@H]5C[C@@H]4CO5)c3)CC2)n1` [Example 157, N-(1-(4-(3-((1R,4R)-2-Oxa-5-azabicyclo[2.2.1]heptan-5-yl)-4-chlorobenzyl)piperazine-1-carbonyl)-1H-pyrazol-3-yl)methanesulfonamide], the inhibition at 1 µM at FAAH [1] is 0 to 25%; at MAGL [2], more than 75%; at FAAH [3], 0 to 25%; on MAGL [4], more than 75%. The “FAAH % inh. 5 mg/kg (mouse)” value at FAAH [5] was “D (% inhibition is greater than or equal to 0% and less than 25%)”. Besides, the “MAGL % inh. 5 mg/kg (mouse)” value on MAGL [6] is “D (% inhibition is greater than or equal to 0% and less than 25%)”.
In the case of `CS(=O)(=O)Nc1ccn(C(=O)N2CCN(Cc3ccc(Cl)c(N4CCO[C@@H]5CCC[C@@H]54)c3)CC2)n1` [Example 158, N-(1-(4-(4-Chloro-3-((4aS,7aR)-hexahydrocyclopenta[b][1,4]oxazin-4(4aH)-yl)benzyl)piperazine-1-carbonyl)-1H-pyrazol-3-yl)methanesulfonamide], the inhibition at 1 µM at FAAH [1] was 0 to 25%; on MAGL [2], more than 75%; at FAAH [3], 0 to 25%; at MAGL [4], more than 75%. Also, the “FAAH % inh. 5 mg/kg (mouse)” value at FAAH [5] is “D (% inhibition is greater than or equal to 0% and less than 25%)”. Besides, at MAGL [6], the “MAGL % inh. 5 mg/kg (mouse)” value is “D (% inhibition is greater than or equal to 0% and less than 25%)”.
For the compound `CS(=O)(=O)Nc1ccn(C(=O)N2CCN(Cc3ccc(Cl)c(N4CCC5(CCOCC5)C4)c3)CC2)n1` [Example 159, N-(1-(4-(4-Chloro-3-(8-oxa-2-azaspiro[4.5]decan-2-yl)benzyl)piperazine-1-carbonyl)-1H-pyrazol-3-yl)methanesulfonamide], the inhibition at 1 µM on FAAH [1] is 0 to 25%; at MAGL [2], more than 75%; on FAAH [3], 0 to 25%; at MAGL [4], more than 75%. Besides, the “FAAH % inh. 5 mg/kg (mouse)” value on FAAH [5] was “D (% inhibition is greater than or equal to 0% and less than 25%)”. In addition, the “MAGL % inh. 5 mg/kg (mouse)” value on MAGL [6] was “D (% inhibition is greater than or equal to 0% and less than 25%)”.
For `CC(=O)Nc1ccn(C(=O)N2CC3CN(Cc4cc(N5CCCC5)cc(C(F)(F)F)c4)CC3C2)n1` (stereo not drawn) [Example 168, N-(1-(5-(3-(Pyrrolidin-1-yl)-5-(trifluoromethyl)benzyl)octahydropyrrolo[3,4-c]pyrrole-2-carbonyl)-1H-pyrazol-3-yl)acetamide], the inhibition at 1 µM at FAAH [1] is 50 to 75%; at MAGL [2], more than 75%; on FAAH [3], more than 75%; at MAGL [4] it was more than 75%. Besides, the “FAAH % inh. 5 mg/kg (mouse)” value on FAAH [5] is reported as “A (% inhibition is greater than or equal to 75%)”. In addition, the “MAGL % inh. 5 mg/kg (mouse)” value at MAGL [6] was “A (% inhibition is greater than or equal to 75%)”.
As to `CC(=O)Nc1ccn(C(=O)N2CC3CN(Cc4ccc(N5CCCC5)cc4Cl)CC3C2)n1` (stereo not drawn) [Example 169, N-(1-(5-(2-Chloro-4-(pyrrolidin-1-yl)benzyl)octahydropyrrolo[3,4-c]pyrrole-2-carbonyl)-1H-pyrazol-3-yl)acetamide], the inhibition at 1 µM was 50 to 75% at FAAH [1], more than 75% on MAGL [2], more than 75% at FAAH [3] and more than 75% on MAGL [4]. For the same compound, on FAAH [5], the “FAAH % inh. 5 mg/kg (mouse)” value is “B (% inhibition is greater than or equal to 50% and less than 75%)”. Also, on MAGL [6], the “MAGL % inh. 5 mg/kg (mouse)” value was “B (% inhibition is greater than or equal to 50% and less than 75%)”.
